# Source: publication PMC5104943, “Structural and Functional Characterization of a Ruminal β-Glycosidase Defines a Novel Subfamily of Glycoside Hydrolase Family 3 with Permuted Domain Topology” (The Journal of Biological Chemistry, 2016)
# Target: T1, GlyA1-ΔCt (rumen metagenome, UniProt Z9J456A3C9)
# T1 sequence (Z9J456A3C9 2-799): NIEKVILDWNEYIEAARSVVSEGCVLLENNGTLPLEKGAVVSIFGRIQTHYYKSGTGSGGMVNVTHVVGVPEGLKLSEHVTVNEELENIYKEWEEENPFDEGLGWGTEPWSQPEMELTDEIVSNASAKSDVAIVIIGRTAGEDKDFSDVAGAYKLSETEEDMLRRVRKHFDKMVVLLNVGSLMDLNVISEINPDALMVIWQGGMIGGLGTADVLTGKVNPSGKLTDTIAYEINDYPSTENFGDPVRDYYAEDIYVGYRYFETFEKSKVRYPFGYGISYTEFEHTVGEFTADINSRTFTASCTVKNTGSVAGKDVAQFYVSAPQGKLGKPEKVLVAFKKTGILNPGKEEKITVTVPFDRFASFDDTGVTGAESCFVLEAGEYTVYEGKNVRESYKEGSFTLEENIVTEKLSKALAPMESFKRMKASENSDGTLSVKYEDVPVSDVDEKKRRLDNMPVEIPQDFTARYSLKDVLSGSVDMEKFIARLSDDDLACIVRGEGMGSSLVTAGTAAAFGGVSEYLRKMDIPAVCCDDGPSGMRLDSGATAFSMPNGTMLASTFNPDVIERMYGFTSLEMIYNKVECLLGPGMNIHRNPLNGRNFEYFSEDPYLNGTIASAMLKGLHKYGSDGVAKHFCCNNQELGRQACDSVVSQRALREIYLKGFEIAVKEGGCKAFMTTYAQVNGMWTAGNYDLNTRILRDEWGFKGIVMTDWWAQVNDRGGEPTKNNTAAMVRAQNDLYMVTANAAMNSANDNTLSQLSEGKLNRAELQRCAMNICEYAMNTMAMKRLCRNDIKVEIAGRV
# Test: X-ray crystallography, […] Å, soak […]
# Type: binding
# Settings: active site subsite -1, semi-chair conformation; 2.0 M ammonium sulfate, pH 5.5
structure (smiles),measurement,value
OC[C@H]1OC(O)[C@H](O)[C@@H](O)[C@H]1O (stereo partly drawn) [D-galactose],"X-ray crystallography, 2.29 Å, soak 5-50 mM",soaking of crystals with galactose showed that this sugar displays a semi-chair conformation
